# Assay results published in publication PMC8949771, “Gold(I)-Mediated Rapid Cyclization of Propargylated Peptides via Imine Formation” (Journal of the American Chemical Society, 2022).
# Assays:
# [1] = Au(I)-mediated imine macrocyclisation (JohnPhosAu(MeCN)SbF6 2 equiv, Et4NBr 16 equiv) then in situ NaBH4 reduction to cyclic amine, HPLC isolation; conditions: the molecule shown is the open-chain precursor, DMF, 8.0 mM, 37.0 °C, 2 steps
# [2] = Au(I)-mediated imine macrocyclisation: N-terminal amine adds (Markovnikov) to N-propargyl backbone amide alkyne; JohnPhosAu(MeCN)SbF6 2 equiv, Et4NBr 16 equiv; in situ NaBH4 10 equiv reduction 15 min for quantification; conditions: 24-membered ring, DMF, 8.0 mM, 37.0 °C, 1.0 h
# HeLa cells = experiment: Live-cell uptake, confocal microscopy; assay type: cell-based; conditions: 2.5 μM, 1 h incubation, FITC signal, repeated in duplicates
# Experimental: With both peptides in hand (5 and 6, Figure 7A), we investigated the binding efficiency using our fluorescence-based competitive assay.[38] […] Encouraged by these in vitro results, we explored the cellular uptake and apoptosis efficacy of the new cyclic peptide in living cells. To investigate the live cell delivery efficacy of the FITC-labeled peptides (9 and 10), both cyclic peptides were incubated for 1h with HeLa cells at different concentrations of 2.5, 5, 7, and 10 μM. […] After assessing the cellular uptake, we probed the controlled cell death or apoptosis in HeLa cells using only 2.5 μM peptides (3 and 5) and the known proteasome inhibitor MG-132 as a positive control. […] (Figure 7E).
# To investigate the cellular delivery efficiency of the new cyclic peptide HeLa (CCL-2™) cells were seeded on ibidi poly-L-lysine (PLL) 8 well µ-slides in […] and were allowed to reach […]
# ~90% confluency over 24h. Cells were washed three times with warm PBS and serum-free DMEM (high glucose) followed by incubation for 1h with warm PBS/serum-free medium containing containing 2.5, 5, and 10 µM of fluorescently labeled cyclic peptides (9 and 10). Cells were then washed three times with warm PBS followed by adding 0.1 mg/ml heparin sulfate in PBS and incubating for 5min. […]
compound,measurement,setting,value
C#CCN(CC(N)=O)C(=O)CNC(=O)[C@H](C)NC(=O)[C@H](CCCNC(=N)N)NC(=O)[C@H](Cc1ccc(O)cc1)NC(=O)[C@H](CC(C)C)NC(=O)[C@H](CCCCN)NC(=O)CNC(=O)OCC1c2ccccc2-c2ccccc21 [Fmoc-Gly-Lys-Leu-Tyr-Arg-Ala-Gly-(N-propargyl)Gly-NH2],"ring closure, yield over several steps","[1]; 25-membered ring, 1.0 h",61%
C#CCN(CC(N)=O)C(=O)CNC(=O)[C@H](C)NC(=O)[C@H](CCCNC(=N)N)NC(=O)[C@H](Cc1ccc(O)cc1)NC(=O)[C@H](CC(C)C)NC(=O)CNC(=O)[C@@H](N)Cc1ccccc1 [H-Phe-Gly-Leu-Tyr-Arg-Ala-Gly-(N-propargyl)Gly-NH2],"ring closure, yield over several steps","[1]; 24-membered ring, 0.5 h",75%
C#CCN(C(=O)CNC(=O)[C@H](C)NC(=O)[C@H](CCCNC(=N)N)NC(=O)[C@H](Cc1ccc(O)cc1)NC(=O)[C@H](CC(C)C)NC(=O)CNC(=O)[C@@H](N)Cc1ccccc1)[C@H](C(N)=O)[C@@H](C)CC [H-Phe-Gly-Leu-Tyr-Arg-Ala-Gly-(N-propargyl)Ile-NH2],"ring closure, yield over several steps","[1]; 24-membered ring, 1.0 h",60%
C#CCN(CC(N)=O)C(=O)[C@@H](NC(=O)[C@H](C)NC(=O)[C@H](CCCNC(=N)N)NC(=O)[C@H](Cc1ccc(O)cc1)NC(=O)[C@H](CC(C)C)NC(=O)CNC(=O)[C@@H](N)Cc1ccccc1)[C@@H](C)CC [H-Phe-Gly-Leu-Tyr-Arg-Ala-Ile-(N-propargyl)Gly-NH2],"ring closure, yield over several steps","[1]; 24-membered ring, 1.0 h",66%
C#CCN(CC(N)=O)C(=O)CNC(=O)[C@H](C)NC(=O)[C@H](CO)NC(=O)[C@H](Cc1ccc(O)cc1)NC(=O)[C@H](CC(C)C)NC(=O)CNC(=O)[C@@H](N)Cc1ccccc1 [H-Phe-Gly-Leu-Tyr-Ser-Ala-Gly-(N-propargyl)Gly-NH2],"ring closure, yield over several steps","[1]; 24-membered ring, 1.0 h",60%
CC(C)C[C@@H]1NC(=O)CNC(=O)[C@H](CO)NC(C)CN(CC(N)=O)C(=O)CNC(=O)[C@H](C)NC(=O)[C@H](CCCNC(=N)N)NC(=O)[C@H](Cc2ccc(O)cc2)NC1=O (stereo partly drawn) [H-Ser-Gly-Leu-Tyr-Arg-Ala-Gly-(N-propargyl)Gly-NH2],"ring closure, conversion by HPLC",[2]; from C#CCN(CC(N)=O)C(=O)CNC(=O)[C@H](C)NC(=O)[C@H](CCCNC(=N)N)NC(=O)[C@H](Cc1ccc(O)cc1)NC(=O)[C@H](CC(C)C)NC(=O)CNC(=O)[C@@H](N)CO,75%
C#CCN(CC(N)=O)C(=O)CNC(=O)[C@H](C)NC(=O)[C@H](CCCNC(=N)N)NC(=O)[C@H](Cc1ccc(O)cc1)NC(=O)[C@H](CC(C)C)NC(=O)CNC(=O)[C@@H](N)Cc1c[nH]c2ccccc12 [H-Trp-Gly-Leu-Tyr-Arg-Ala-Gly-(N-propargyl)Gly-NH2],"ring closure, yield over several steps","[1]; 24-membered ring, 1.0 h",74%
CC(C)C[C@@H]1NC(=O)CNC(=O)[C@H](Cc2c[nH]c3ccccc23)NC(C)CN(CC(N)=O)C(=O)CNC(=O)[C@H](C)NC(=O)[C@H](CCCNC(=N)N)NC(=O)[C@H](Cc2ccc(O)cc2)NC1=O (stereo partly drawn) [H-Trp-Gly-Leu-Tyr-Arg-Ala-Gly-(N-propargyl)Gly-NH2],"ring closure, conversion by HPLC",[2]; from C#CCN(CC(N)=O)C(=O)CNC(=O)[C@H](C)NC(=O)[C@H](CCCNC(=N)N)NC(=O)[C@H](Cc1ccc(O)cc1)NC(=O)[C@H](CC(C)C)NC(=O)CNC(=O)[C@@H](N)Cc1c[nH]c2ccccc12,83%
CC1=NCC(=O)N[C@@H](Cc2c[nH]c3ccccc23)C(=O)N[C@@H](Cc2ccccc2)C(=O)N[C@@H](CC(=O)O)C(=O)N[C@@H](CC(=O)O)C(=O)N[C@@H](CC(C)C)C(=O)N[C@@H](Cc2ccc(O)cc2)C(=O)N[C@@H](Cc2c[nH]c3ccccc23)C(=O)N[C@@H](Cc2ccccc2)C(=O)N[C@@H](C(C)C)C(=O)N[C@@H](C)C(=O)N[C@@H](Cc2ccc(O)cc2)C(=O)N(CC(=O)N[C@@H](C)C(=O)N[C@@H](CSC2CC(=O)N(c3ccc4c(c3)C(=O)OC43c4ccc(O)cc4Oc4cc(O)ccc43)C2=O)C(N)=O)C1 (stereo partly drawn) [Peptide 10],cellular uptake (fluorescence in cells),HeLa cells,significant fluorescence
